This assay concerns Mycobacterium ranae. As to the kind of experiment: Assay on anti-mycobacterial activity (suspension dilution method). It is filed as cell-based. To be noted: M. ranae, 48 h at 37° C., visual evaluation of growth inhibition. As for the experimental part: To assay the anti-mycobacterial efficacy, Mycobacterium ranae that represents a non-human pathogenic mycobacterium having a similar sensitivity against chemotherapeutic agents like M. tuberculosis was used. The suspension dilution method was used to determine the minimal inhibitory concentration (MHC). The extract of Pelargonium sidoides was solved in DMSO and serially diluted to obtain the required concentrations. Pelargonium extract or the solvent was added in a volume of 10 μl to 48-well microtiter plates containing 990 μl of an M. ranae suspension (ATCC 10) in a concentration of 1-5×10^5 CFU/ml Brain-Heart Infusion Broth (Difco, USA) per well. The maximum concentration of the solvent (DMSO) was 1%. Pelargonium extract was tested at concentrations between 100 and 0.03 μg/ml. All tests were carried out twice. The plates were incubated for 48 h at 37° C. and then the inhibition of the growth of the bacteria was evaluated visually.

The values below come from patent US20060263448A1, “Use of extracts from roots of pelargonium sidoides and pelargonium reniforme” (priority 2004, published 2006).

As to Gentamicin, the “minimal inhibitory concentration (MHC)” value came to 0.3 µg/mL.
